Source: paper PMC7362424, “Structural elucidation, molecular docking, α-amylase and α-glucosidase inhibition studies of 5-amino-nicotinic acid derivatives” (BMC Chemistry, 2020)

Row | SMILES | melting point [°C]
1 | O=C(O)c1cncc(NC(=S)Nc2cccc(F)c2)c1 [Compound 11, 5-(3-(3-Fluorophenyl)thioureido) pyridine-3-carboxylic acid] | > 300
2 | O=C(O)c1cncc(NC(=S)Nc2ccc(Br)cc2)c1 [Compound 7, 5-(3-(4-Bromophenyl)thioureido) pyridine-3-carboxylic acid] | > 300
3 | Cc1ccc(NC(=S)Nc2cncc(C(=O)O)c2)cc1 [Compound 3, 5-(3-p-Tolylthioureido)pyridine-3-carboxylic acid] | > 300
4 | Cc1ccc(NC(=S)Nc2cncc(C(=O)O)c2)cc1Cl [Compound 9, 5-(3-(3-Chloro-4-methylphenyl)thioureido) pyridine-3-carboxylic acid] | > 300
5 | O=C(O)c1cncc(NC(=S)Nc2ccccc2F)c1 [Compound 10, 5-(3-(2-Fluorophenyl)thioureido) pyridine-3-carboxylic acid] | > 300
6 | O=C(O)c1cncc(NC(=S)Nc2ccc(F)cc2)c1 [Compound 4, 5-(3-(4-Fluorophenyl)thioureido)pyridine-3-carboxylic acid] | > 300
7 | O=C(O)c1cncc(NC(=S)Nc2ccc(C(F)(F)F)cc2)c1 [Compound 8, 5-(3-(4-(Trifluoromethyl)phenyl)thioureido) pyridine-3-carboxylic acid] | > 300
8 | COc1ccc(NC(=S)Nc2cncc(C(=O)O)c2)cc1 [Compound 6, 5-(3-(4-Methoxyphenyl)thioureido) pyridine-3-carboxylic acid] | > 300
9 | O=C(O)c1cncc(NC(=S)Nc2ccccc2)c1 [Compound 1, 5-(3-Phenylthioureido)pyridine-3-carboxylic acid] | > 300
10 | O=C(O)c1cncc(NC(=S)Nc2ccccc2Br)c1 [Compound 12, 5-(3-(2-Bromophenyl)thioureido) pyridine-3-carboxylic acid] | > 300
11 | O=C(O)c1cncc(NC(=S)Nc2ccc(Cl)cc2)c1 [Compound 2, 5-(3-(4-Chlorophenyl)thioureido)pyridine-3-carboxylic acid] | > 300
12 | O=C(O)c1cncc(NC(=S)Nc2cccc(Br)c2)c1 [Compound 13, 5-(3-(3-Bromophenyl)thioureido) pyridine-3-carboxylic acid] | > 300
13 | O=C(O)c1cncc(NC(=S)Nc2ccc([N+](=O)[O-])cc2)c1 [Compound 5, 5-(3-(4-Nitrophenyl)thioureido) pyridine-3-carboxylic acid] | > 300
